How the values were obtained:
Assay type in all cases: in vivo
Lolium rigidum (LOLRI) [1] = experiment: Pre-emergence herbicidal action against LOLRI
In short: (§1)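 Greenhouse pot trial: seeds sown, soil-covered, sprayed before emergence with compound in water (0.5% additive; 600 l/ha; ≤320 g/ha). Scoring visual, ~3 weeks, 0–100% scale vs untreated.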

[2] = tested on: Amaranthus retroflexus (AMARE); experiment: Pre-emergence herbicidal action against AMARE; conditions: visual scoring after about 3 weeks vs untreated controls
In short: as §1

Viola tricolor (VIOTR) [3] = experiment: Pre-emergence herbicidal action against VIOTR
In short: as §1

[4] = tested on: Abutilon theophrasti (ABUTH); experiment: Pre-emergence herbicidal action against ABUTH; conditions: Dosage column 320 g/ha (title prints 3200 g/ha); scored visually after about 3 weeks; 100% = plants have died
In short: as §1

Avena fatua (AVEFA) [5] = experiment: Pre-emergence herbicidal action against AVEFA; conditions: 320 g/ha, visual scoring after about 3 weeks vs untreated controls
In short: as §1

Setaria viridis (SETVI) [6] = experiment: Pre-emergence herbicidal action against SETVI
In short: as §1

Viola tricolor (VIOTR) [7] = experiment: Post-emergence herbicidal action against VIOTR
In short: (§2)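 Post-emergence greenhouse spray, one-leaf stage, 600 l/ha water plus 0.5% additive; WP or EC formulations; application rates 320 g/ha or lower. Visual % damage vs untreated controls at ~3 weeks.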

Lolium rigidum (LOLRI) [8] = experiment: Post-emergence herbicidal action against LOLRI
In short: as §2

[9] = tested on: Echinochloa crus-galli (ECHCG); experiment: Post-emergence herbicidal action against ECHCG
In short: as §2

Setaria viridis (SETVI) [10] = experiment: Post-emergence herbicidal action against SETVI
In short: as §2

[11] = tested on: Matricaria inodora (MATIN); experiment: Pre-emergence herbicidal action against MATIN
In short: as §1

[12] = tested on: Polygonum convolvulus (POLCO); experiment: Post-emergence herbicidal action against POLCO; conditions: dosage 320 g/ha
In short: as §2

[13] = tested on: Polygonum convolvulus (POLCO); experiment: Pre-emergence herbicidal action against POLCO
In short: as §1

[14] = tested on: Verconica persica (VERPE); experiment: Pre-emergence herbicidal action against VERPE
In short: as §1

[15] = tested on: Pharbitis purpurea (PHBPU); experiment: Pre-emergence herbicidal action against PHBPU
In short: as §1

[16] = tested on: Abutilon theophrasti (ABUTH); experiment: Post-emergence herbicidal action against ABUTH; conditions: 320 g/ha, visual rating about 3 weeks after treatment vs untreated controls (100% = plants have died, 0% = like control plants)
In short: as §2

[17] = tested on: Echinochloa crus-galli (ECHCG); experiment: Pre-emergence herbicidal action against ECHCG
In short: as §1

[18] = tested on: Digitaria sanguinalis (DIGSA); experiment: Post-emergence herbicidal action against DIGSA; conditions: visual rating about 3 weeks after treatment
In short: as §2

Avena fatua (AVEFA) [19] = experiment: Post-emergence herbicidal action against AVEFA; conditions: visual rating about 3 weeks after treatment
In short: as §2

[20] = tested on: Digitaria sanguinalis (DIGSA); experiment: Pre-emergence herbicidal action against DIGSA
In short: as §1

[21] = tested on: Pharbitis purpurea (PHBPU); experiment: Post-emergence herbicidal action against PHBPU
In short: as §2

[22] = tested on: Alopecurus myosuroides (ALOMY); experiment: Pre-emergence herbicidal action against ALOMY; conditions: scored visually after about 3 weeks, 100% = plants have died
In short: as §1

[23] = tested on: Alopecurus myosuroides (ALOMY); experiment: Post-emergence herbicidal action against ALOMY; conditions: visual rating about 3 weeks after treatment vs untreated controls (100% = plants have died, 0% = like control plants)
In short: as §2

[24] = tested on: Verconica persica (VERPE); experiment: Post-emergence herbicidal action against VERPE
In short: as §2

Oryza sativa (ORYSA) = conditions: crop plant compatibility, 80 g/ha, effect in comparison to untreated controls
In short: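 Greenhouse crops in sandy loam sprayed post-emergence at the one-leaf stage, 2–3 weeks after sowing, with WP or EC formulations in water plus 0.5% additive at 600 l/ha. Damage rated visually about 3 weeks later versus untreated controls (0% = like control, 100% = dead); suffixes a–c denote different doses.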

[25] = tested on: Matricaria inodora (MATIN); experiment: Post-emergence herbicidal action against MATIN; conditions: dosage 320 g/ha
In short: as §2

[26] = 80 g/ha, visual scoring after about 3 weeks vs untreated controls

| Compound | Pre-emergence action against LOLRI in % (Lolium rigidum (LOLRI) [1]; dosage 320 g/ha) [%] | Pre-emergence action against AMARE in % ([2]; 80 g/ha) [%] | Pre-emergence action against AMARE in % ([2]; 320 g/ha) [%] | Pre-emergence action against VIOTR in % (Viola tricolor (VIOTR) [3]; 320 g/ha, Viola tricolor) [%] | Pre-emergence action against VIOTR in % (Viola tricolor (VIOTR) [3]; dosage 80 g/ha) [%] | Pre-emergence action against ABUTH [4] [%] | Pre-emergence action against AVEFA in % (Avena fatua (AVEFA) [5]) [%] | Pre-emergence action against SETVI in % (Setaria viridis (SETVI) [6]; dosage 80 g/ha) [%] | Pre-emergence action against SETVI in % (Setaria viridis (SETVI) [6]; dosage 320 g/ha) [%] | Post-emergence action against VIOTR in % (Viola tricolor (VIOTR) [7]; 320 g/ha) [%] | Post-emergence action against LOLRI in % (Lolium rigidum (LOLRI) [8]; dosage 320 g/ha) [%] | Post-emergence action against ECHCG in % ([9]; dosage 320 g/ha) [%] | Post-emergence action against SETVI in % (Setaria viridis (SETVI) [10]; dosage 320 g/ha) [%] | Pre-emergence action against MATIN in % ([11]; dosage 80 g/ha) [%] | Pre-emergence action against MATIN in % ([11]; dosage 320 g/ha) [%] | Post-emergence action against POLCO in % [12] [%] | Pre-emergence action against POLCO in % ([13]; dosage 320 g/ha) [%] | Pre-emergence action against VERPE in % ([14]; dosage 320 g/ha) [%] | Pre-emergence action against PHBPU in % ([15]; dosage 320 g/ha) [%] | Pre-emergence action against ECHCG in % ([17]; dosage 320 g/ha) [%] | further results |
| --- | --- | --- | --- | --- | --- | --- | --- | --- | --- | --- | --- | --- | --- | --- | --- | --- | --- | --- | --- | --- | --- |
| COC(=O)[C@H](C)COC(=O)COc1nn(-c2ccccn2)c(-c2cncc(F)c2)c1Br [Example I-195] | 100 | 90 | 100 | 100 | 80 | 80 | 90 | 100 | 100 | 80 | 80 | 80 | 90 | 90 | 90 | 80 | 100 | 100 | 90 | 100 | Pre-emergence action against LOLRI in % (Lolium rigidum (LOLRI) [1]; dosage 80 g/ha): 80%; Post-emergence action against VIOTR in % (Viola tricolor (VIOTR) [7]; 80 g/ha): 80%; Post-emergence action against SETVI in % (Setaria viridis (SETVI) [10]; dosage 80 g/ha): 90%; Pre-emergence action against POLCO in % ([13]; dosage 80 g/ha): 90%; Post-emergence action against ABUTH in % [16]: 90%; Post-emergence action against DIGSA in % ([18]; 80 g/ha): 90%; Post-emergence action against DIGSA in % ([18]; 320 g/ha): 90%; Post-emergence action against AVEFA in % (Avena fatua (AVEFA) [19]; 320 g/ha): 90%; Pre-emergence action against DIGSA in % [20, 26]: 90%; Pre-emergence action against DIGSA in % ([20]; dosage 320 g/ha): 100%; Post-emergence action against PHBPU in % ([21]; dosage 80 g/ha): 90%; Post-emergence action against PHBPU in % ([21]; dosage 320 g/ha): 90%; Pre-emergence action against ALOMY ([22]; 80 g/ha): 80%; Pre-emergence action against ALOMY ([22]; 320 g/ha): 90%; Post-emergence action against ALOMY in % ([23]; 80 g/ha): 80%; Post-emergence action against ALOMY in % ([23]; 320 g/ha): 90%; Post-emergence action against VERPE in % ([24]; 320 g/ha, VERPE): 80%; Post-emergence action against VERPE in % ([24]; dosage 80 g/ha): 80% |
| C[C@@H](Oc1nn(-c2nc(F)ccc2F)c(-c2ccc(F)nc2)c1C1CC1)C(=O)O [Example I-296] | 100 | 80 | 90 | 100 | 90 | 80 | 90 | 90 | 100 | 80 | 80 | 80 | 80 | 80 | 90 | 80 | 90 | 100 | 90 | 100 | Post-emergence action against VIOTR in % (Viola tricolor (VIOTR) [7]; 80 g/ha): 80%; Post-emergence action against LOLRI in % (Lolium rigidum (LOLRI) [8]; dosage 80 g/ha): 80%; Post-emergence action against ECHCG in % ([9]; dosage 80 g/ha): 80%; Pre-emergence action against POLCO in % ([13]; dosage 80 g/ha): 80%; Pre-emergence action against VERPE in % ([14]; dosage 80 g/ha): 90%; Post-emergence action against ABUTH in % [16]: 80%; Post-emergence action against DIGSA in % ([18]; 80 g/ha): 80%; Post-emergence action against DIGSA in % ([18]; 320 g/ha): 90%; Post-emergence action against AVEFA in % (Avena fatua (AVEFA) [19]; 80 g/ha): 80%; Post-emergence action against AVEFA in % (Avena fatua (AVEFA) [19]; 320 g/ha): 80%; Pre-emergence action against DIGSA in % [20, 26]: 90%; Pre-emergence action against DIGSA in % ([20]; dosage 320 g/ha): 100%; Post-emergence action against ORYSA in % (Oryza sativa (ORYSA)): 0%; Post-emergence action against PHBPU in % ([21]; dosage 320 g/ha): 90%; Pre-emergence action against ALOMY ([22]; 80 g/ha): 80%; Pre-emergence action against ALOMY ([22]; 320 g/ha): 100%; Post-emergence action against ALOMY in % ([23]; 80 g/ha): 80%; Post-emergence action against ALOMY in % ([23]; 320 g/ha): 90%; Post-emergence action against VERPE in % ([24]; 320 g/ha, VERPE): 80% |
| COC(=O)[C@@H](C)Oc1nn(-c2nc(F)ccc2F)c(-c2cncc(F)c2)c1Cl [Example I-154] | 100 | 90 | 100 | 100 | 100 | 90 | 80 | 90 | 100 | 80 | 90 | 80 | 80 | 90 | 100 | 80 | 90 | 100 | 90 | 100 | Pre-emergence action against LOLRI in % (Lolium rigidum (LOLRI) [1]; dosage 80 g/ha): 90%; Post-emergence action against LOLRI in % (Lolium rigidum (LOLRI) [8]; dosage 80 g/ha): 80%; Post-emergence action against ECHCG in % ([9]; dosage 80 g/ha): 80%; Post-emergence action against MATIN in % [25]: 80%; Pre-emergence action against PHBPU in % ([15]; dosage 80 g/ha): 80%; Pre-emergence action against ECHCG in % ([17]; dosage 80 g/ha): 90%; Post-emergence action against DIGSA in % ([18]; 80 g/ha): 80%; Post-emergence action against DIGSA in % ([18]; 320 g/ha): 90%; Post-emergence action against AVEFA in % (Avena fatua (AVEFA) [19]; 320 g/ha): 80%; Pre-emergence action against DIGSA in % [20, 26]: 90%; Pre-emergence action against DIGSA in % ([20]; dosage 320 g/ha): 100%; Post-emergence action against PHBPU in % ([21]; dosage 80 g/ha): 80%; Post-emergence action against PHBPU in % ([21]; dosage 320 g/ha): 90%; Pre-emergence action against ALOMY ([22]; 80 g/ha): 80%; Pre-emergence action against ALOMY ([22]; 320 g/ha): 90% |

Source: US20240041042A1, “1-(PYRIDYL)-5-AZINYLPYRAZOLE DERIVATIVES, AND THEIR USE FOR CONTROL OF UNDESIRED PLANT GROWTH” (Bayer Aktiengesellschaft, priority 2020, published 2024)
